Measured values reported in PubChem BioAssay (NCI).
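48-hour exposure; five concentrations; linearly interpolated endpoints. The concentration for full growth arrest is given as TGI.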

Legend:
Assay in all cases: NCI tumour cell line growth inhibition, 48 h
DU-145 prostate = system: DU-145 prostate
MDA-MB-435 = system: MDA-MB-435
MDA-MB-231 breast = system: MDA-MB-231 breast
MDA-N = system: MDA-N
T-47D breast = system: T-47D breast
HS 578T breast = system: HS 578T breast
PC-3 prostate = system: PC-3 prostate
P388/ADR leukemia = system: P388/ADR leukemia
SN12K1 renal = system: SN12K1 renal

Row | SMILES | TGI (DU-145 prostate) | TGI (MDA-MB-435) | TGI (MDA-MB-231 breast) | TGI (MDA-N) | TGI (T-47D breast) | TGI (HS 578T breast) | TGI (PC-3 prostate) | TGI (P388/ADR leukemia) | TGI (SN12K1 renal)
1 | CCOC(=O)C1=NN(c2ccc(Cl)cc2)C2=CC(C)=NN(C)C(=S)N21 | > 100 µM | > 100 µM | > 100 µM | > 100 µM | 94.8 µM | > 100 µM | > 100 µM |  | 
2 | N/C(=N\N=C\c1cc2c(cc1Cl)OCO2)NO |  |  |  |  |  |  |  | > 81.3 µM | > 100 µM
3 | C=CC[N+](CCO)(CCO)CCCCCCCCCCCCCCCCCC |  |  |  |  |  |  |  | > 49 µM | 20.5 µM
